Assay results from publication PMC9157191, “The ex vivo pharmacology of HIV-1 antiretrovirals differs between macaques and humans” (iScience, 2022).
Values joined by “and” are separate entries in the source; they are usually repeats but may differ in a detail not shown here. Equal values may be shown once.

Columns and labels:
[1] = Drug concentrations in human ecto-cervical tissue explants (LC-MS/MS); details: for AUC3h-15d / Cmax: Human ecto-cervical explants, 3 h exposure; for Cmax: human, ecto-cervical tissue explants
[2] = test system: SIVmac32H K65RM184V; assay: microbe, parasite or virus in culture; type: cell-based; details: for p27 AUC3-15: Rhesus macaque vaginal explants
[3] = test system: SIVmac32H K65RM184V; assay: microbe, parasite or virus in culture; type: cell-based; details: for p27 AUC3-15: Rhesus macaque cervical explants
[4] = test system: HIV-1/SIV/SHIV isolates; type: cell-based
[5] = test system: HIV-1YU.2 K65RM184V; assay: microbe, parasite or virus in culture; type: cell-based; details: Human colorectal explants;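 for p24 AUC3-15: high arm above the IC50 and low arm below the IC50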
[6] = test system: HIV-1BaL; assay: microbe, parasite or virus in culture; type: cell-based; details: Human cervical explants
[7] = test system: SIVmac32H; assay: microbe, parasite or virus in culture; type: cell-based; details: for p27 AUC3-15: Rhesus macaque vaginal explants
[8] = test system: SIVmac32H K65RM184V; assay: microbe, parasite or virus in culture; type: cell-based; details: for p27 AUC3-15: Rhesus macaque colorectal explants
[9] = test system: HIV-1YU.2 M184V; assay: microbe, parasite or virus in culture; type: cell-based; details: Human colorectal explants
[10] = test system: SIVmac32H; assay: microbe, parasite or virus in culture; type: cell-based; details: for p27 AUC3-15: Rhesus macaque cervical explants
[11] = test system: HIV-1BaL; assay: microbe, parasite or virus in culture; type: cell-based; details: Human colorectal explants
[12] = Drug concentrations in human colorectal tissue explants (LC-MS/MS); type: in vitro ADME; details: for AUC3h-15d / Cmax: Human colorectal explants, 3 h exposure; for Cmax: human, colorectal tissue explants, read-out: Cmax
[13] = test system: HIV-1YU.2 K65R; assay: microbe, parasite or virus in culture; type: cell-based; details: Human colorectal explants
[14] = test system: HIV-1YU.2; assay: microbe, parasite or virus in culture; type: cell-based; details: Human colorectal explants
[15] = test system: SIVmac32H K65R; type: cell-based, SIV
[16] = test system: SIVmac32H M184V; type: cell-based, SIV
[17] = test system: RT-SHIV; assay: tissue or blood; type: cell-based; details: for p27 AUC3-15: Rhesus macaque colorectal explants
[18] = test system: SIVmac32H; assay: microbe, parasite or virus in culture; type: cell-based; details: for p27 AUC3-15: Rhesus macaque colorectal explants
[19] = Drug concentrations in Rhesus macaque ecto-cervical tissue explants (LC-MS/MS); type: in vitro ADME, Rhesus macaque (Macaca mulatta); details: for AUC3h–15d / Cmax: Rh. macaque ecto-cervical explants, 3 h exposure; for Cmax: monkey, ecto-cervical tissue explants
[20] = Drug concentrations in Rhesus macaque colorectal tissue explants (LC-MS/MS); type: in vitro ADME, Rhesus macaque (Macaca mulatta); details: for AUC3h–15d / Cmax: Rh. macaque colorectal explants, 3 h exposure; for Cmax: monkey, colorectal tissue explants, read-out: Cmax
[21] = Drug concentrations in Rhesus macaque vaginal tissue explants (LC-MS/MS); type: in vitro ADME, Rhesus macaque (Macaca mulatta); details: for AUC3h–15d / Cmax: Rh. macaque vaginal explants, 3 h exposure; for Cmax: monkey, vaginal tissue explants, read-out: Cmax
[22] = test system: RT-SHIV; assay: tissue or blood; type: cell-based; details: for p27 AUC3-15: Rhesus macaque vaginal explants
[23] = Comb. gel, High [ ]: TFV 70 µM + MVC […]
[24] = Comb. gel, Low [ ]: TFV 7 µM + MVC […]
[25] = Single gel, High [ ]: TFV 70 µM or MVC […]
[26] = Single gel, Low [ ]: TFV 7 µM or MVC […]
[27] = high concentration: TFV 70 µM, MVC […], or TFV 70 µM + MVC […]
[28] = low concentration: TFV 7 µM, MVC […], or TFV 7 µM + MVC […]
[29] = Simian immunodeficiency virus, in Macaca mulatta, 360 h, NHP vaginal explants, day 15
[30] = Simian immunodeficiency virus, in Macaca mulatta, 360 h, NHP cervical explants, day 15
[31] = Human immunodeficiency virus 1, 360 h, day 15
[32] = Simian immunodeficiency virus, in Macaca mulatta, 360 h, NHP colorectal explants, day 15

## C[C@H](Cn1cnc2c(N)ncnc21)OCP(=O)(O)O [TFV, Tenofovir]
[1]; [23]
  AUC3h-15d: 30.61 ng·days/mg
  Cmax: 16600 ng/g
[1]; [24]
  AUC3h-15d: 4.409 ng·days/mg
  Cmax: 2380 ng/g
[1]; [25]
  AUC3h-15d: 25.40 ng·days/mg
  Cmax: 13600 ng/g
[1]; [26]
  AUC3h-15d: 4.05 ng·days/mg
  Cmax: 2030 ng/g
[1]; human ecto-cervical compared to colorectal explants
  average exposure (AUC3h-15d) fold change: 3.7 fold
[1]; human ecto-cervical explants
  AUC3h-15d fold increase, high versus low concentration gels: 6.6 fold
[1]; human ecto-cervical explants versus macaque tissue
  Cmax fold increase: 5.6 fold
[2]; [27]
  p27 AUC3-15: 1.37 ± 0.30 µgxd/ml
[2]; [28]
  p27 AUC3-15: 1.61 ± 0.29 µgxd/ml
[2]; [29]
  IC50: 77.1 ± 31.5 µM
[3]; [27]
  p27 AUC3-15: 1.40 ± 0.30 µgxd/ml
[3]; [28]
  p27 AUC3-15: 1.65 ± 0.30 µgxd/ml
[3]; [30]
  IC50: 81.3 ± 50.8 µM
[4]
  potency against the mutant isolates: reduced
[4]; colorectal tissue compared to female genital tract tissue, NHP and human explants
  median (IQR) fold decreased IC50 values for matched isolates: 1.8 (1.7–2.1) fold
[5]; [27]
  p24 AUC3-15: 1.01 ± 0.11 µgxd/ml
[5]; [28]
  p24 AUC3-15: 1.88 ± 0.07 µgxd/ml
[5]; [31]
  IC50: 36.4 ± 3.83 µM
[6]; [27]
  p24 AUC3-15: 1.13 ± 0.10 µgxd/ml
[6]; [28]
  p24 AUC3-15: 2.55 ± 1.47 µgxd/ml
[6]; [31]
  IC50: 41.4 ± 0.57 µM
[7]; [27]
  p27 AUC3-15: 1.27 ± 0.24 µgxd/ml
[7]; [28]
  p27 AUC3-15: 1.44 ± 0.28 µgxd/ml
[7]; [29]
  IC50: 56.1 ± 62.9 µM
[8]; [27]
  p27 AUC3-15: 1.38 ± 0.27 µgxd/ml
[8]; [28]
  p27 AUC3-15: 1.70 ± 0.32 µgxd/ml
[8]; [32]
  IC50: 47.9 ± 24.9 µM
[9]; [27]
  p24 AUC3-15: 0.52 ± 0.02 µgxd/ml
[9]; [28]
  p24 AUC3-15: 0.82 ± 0.05 µgxd/ml
[9]; [31]
  IC50: 37.9 ± 12.5 µM
[10]; [27]
  p27 AUC3-15: 1.25 ± 0.36 µgxd/ml
[10]; [28]
  p27 AUC3-15: 1.46 ± 0.52 µgxd/ml
[10]; [30]
  IC50: 52.6 ± 41.5 µM
[11]; [27]
  p24 AUC3-15: 0.41 ± 0.17 µgxd/ml
[11]; [28]
  p24 AUC3-15: 2.57 ± 1.81 µgxd/ml
[11]; [31]
  IC50: 22.2 ± 1.39 µM
[12]; [23]
  AUC3h-15d: 6.37 ng·days/mg
  Cmax: 3670 ng/g
[12]; [24]
  AUC3h-15d: 1.99 ng·days/mg
  Cmax: 1170 ng/g
[12]; [25]
  AUC3h-15d: 6.62 ng·days/mg
  Cmax: 2920 ng/g
[12]; [26]
  AUC3h-15d: 2.47 ng·days/mg
  Cmax: 1320 ng/g
[12]; human colorectal tissue
  AUC3h-15d fold increase, high versus low concentration gels: 2.9 fold
[13]; [27]
  p24 AUC3-15: 0.41 ± 0.03 µgxd/ml
[13]; [28]
  p24 AUC3-15: 0.71 ± 0.06 µgxd/ml
[13]; [31]
  IC50: 62.4 ± 15.8 µM
[14]; [27]
  p24 AUC3-15: 1.83 ± 0.18 µgxd/ml
[14]; [28]
  p24 AUC3-15: 10.73 ± 5.56 µgxd/ml
[14]; [31]
  IC50: 28.9 ± 11.8 µM
[15]
  IC50: 46.6 ± 12.6 µM
  p27 AUC3-15: 1.43 ± 0.31 µgxd/ml and 1.95 ± 0.54 µgxd/ml
[16]
  IC50: 40.2 ± 30.1 µM
[17]; Macaca mulatta, 360 h, NHP colorectal explants, day 15
  IC50: 30 ± 13.2 µM
[17]; [27]
  p27 AUC3-15: 1.45 ± 0.24 µgxd/ml
[17]; [28]
  p27 AUC3-15: 4.27 ± 2.75 µgxd/ml
[18]; [27]
  p27 AUC3-15: 1.23 ± 0.14 µgxd/ml
[18]; [28]
  p27 AUC3-15: 4.84 ± 1.77 µgxd/ml
[18]; [32]
  IC50: 25.4 ± 5.35 µM
[19]; NHP ecto-cervical explants, combination versus single drug
  AUC3h-15d fold increase on combining the two ARVs: 2.2 fold
[19]; [23]
  AUC3h–15d: 18.55 ng·days/mg
  Cmax: 2460 ng/g
[19]; [24]
  AUC3h–15d: 14.11 ng·days/mg
  Cmax: 1860 ng/g
[19]; [25]
  AUC3h–15d: 9.55 ng·days/mg
  Cmax: 1250 ng/g
[19]; [26]
  AUC3h–15d: 4.99 ng·days/mg
  Cmax: 660 ng/g
[20]; NHP colorectal explants versus ecto-cervical
  exposure (AUC3h-15d) fold change: 2.5 fold
[20]; NHP colorectal explants versus vaginal tissues
  exposure (AUC3h-15d) fold change: 4.4 fold
[20]; [23]
  AUC3h–15d: 66.86 ng·days/mg
  Cmax: 44200 ng/g
[20]; [24]
  AUC3h–15d: 13.99 ng·days/mg
  Cmax: 9190 ng/g
[20]; [25]
  AUC3h–15d: 30.64 ng·days/mg
  Cmax: 20200 ng/g
[20]; [26]
  AUC3h–15d: 4.68 ng·days/mg
  Cmax: 2980 ng/g
[21]; [23]
  AUC3h–15d: 10.16 ng·days/mg
  Cmax: 1350 ng/g
[21]; [24]
  AUC3h–15d: 5.75 ng·days/mg
  Cmax: 770 ng/g
[21]; [25]
  AUC3h–15d: 10.25 ng·days/mg
  Cmax: 1370 ng/g
[21]; [26]
  AUC3h–15d: 4.05 ng·days/mg
  Cmax: 540 ng/g
[21]; macaque vaginal explants
  AUC3h-15d fold increase, high versus low concentration gels: 2.1 fold
[22]; Macaca mulatta, 360 h, NHP vaginal explants, day 15
  IC50: 52.1 ± 27.3 µM
[22]; [27]
  p27 AUC3-15: 1.28 ± 0.27 µgxd/ml
[22]; [28]
  p27 AUC3-15: 1.53 ± 0.29 µgxd/ml
